Measurements as given in paper PMC9532970, “Rational design of photosynthetic reaction center protein maquettes” (Frontiers in Molecular Biosciences, 2022).
Like-named read-outs stand apart in the source and are kept apart here.

Tests used:
RC maquette = test: UV/vis cofactor binding titration into RC maquette (no heme pre-bound); conditions: for Kd: electron acceptor titrated into 1.1-4.4 µM RC maquette, pH 7.0, fit to one-site binding equation (Eq. 2), read-out: dissociation constant (KD)
Protocol: (§1) Ultraviolet/visible absorbance spectroscopy (UV/vis) was carried out on a Varian Cary-50 spectrophotometer. Cofactor binding titrations were performed at room temperature using 1 ml samples of ∼1 μM RC maquette in quartz cuvettes. Protein concentrations were calculated by assuming that Trp and Tyr residues have extinction coefficients at 280 nm (ε280nm) of 5,500 M^−1 cm^−1 and 1,490 M^−1 cm^−1, respectively. Samples of Zn 5-phenyl 15-(p-carboxyphenyl) porphyrin (ZnPCP) and Zn Newkome porphyrin were provided by Tatiana Esipova from the research group of Sergei Vinogradov ([Kodali et al., 2017]). The Zn chlorins SE370 and SE375 were produced by the laboratory of Jonathan Lindsey following previously established methods ([Aravindu et al., 2013]; [Kodali et al., 2017]). Other tetrapyrroles were purchased from Frontier Scientific, Inc. Stock solutions of water-soluble cofactors were prepared in water, and insoluble tetrapyrroles were prepared in dimethyl sulfoxide stock solutions of 100–200 µM concentration. Heme B stock concentrations were measured by hemochrome assay ([Berry and Trumpower, 1987]). Stock concentrations of other tetrapyrrole cofactors were estimated by mass measurements.
(§2) For each titration, a cofactor stock solution was titrated into the protein solution in the cuvette. After each addition of cofactor, at least 10 min were allowed for equilibration before collecting a UV/vis spectrum. Cofactor was typically added in steps of 0.1 equivalents of cofactor per protein until after the binding capacity of the protein appeared to have been reached, at which point 0.2 equivalents of cofactor per protein were added at a time. Binding titrations continued until at total of at least three equivalents of cofactor per protein had been added. To determine dissociation constants, we used the following one-site binding equation: A=ctotɛfree+(ɛbound−ɛfree)KD+Ptot+ctot−(KD+Ptot+ctot)^2−4Ptotctot/2+b (2)
(§3) In Eq. 2, A represents the total absorbance at a given wavelength, c tot is the total cofactor concentration, P tot is the total protein concentration, K D is the dissociation constant, εfree is the extinction coefficient of unbound cofactor in solution, εbound is the extinction coefficient of protein-bound cofactor, and b is the absorbance of the sample when c tot is zero.

cyt. b 562 = conditions: read-out: KD of CoPPIX for cyt. b 562, cited from earlier work
[1] = biological target: RC maquette-heme B complex; test: UV/vis pigment binding titration into RC maquette with heme B bound; conditions: RC maquette (His124) with heme B bound to the acceptor site; for Kd: read-out: Dissociation constant (KD)
Protocol: as §1, §2, §3

DH maquette = test: UV/vis heme binding titration into DH maquette; conditions: ferric heme B into 0.5 µM DH maquette, 50 mM NaCl, 10 mM MOPS pH 7.5; read-out: dissociation constant (KD)

| Molecule | Kd (RC maquette) | Dissociation constant (KD), result in words [1] | also measured |
| --- | --- | --- | --- |
| C=Cc1c(C)c2cc3[nH]c(cc4nc(cc5nc(cc1[nH]2)C(C)=C5CCC(=O)[O-])C(CCC(=O)[O-])=C4C)c(C)c3C=C.[Co+2] [CoPPIX, Co(III) protoporphyrin IX] | 250 nM | – | CoPPIX affinity relative to heme B affinity of the RC maquette (times weaker) (RC maquette; KD 250 nM vs <10 nM): about 25 times; Kd (cyt. b 562; lower end of literature range, ref Alcala-Torano et al., 2021): 45 nM; Kd (cyt. b 562; upper end of literature range, ref Sommer et al., 2016): 8900 nM |
| CC(=O)C1=C(C)C2=Cc3c(C(C)=O)c(C)c4[n]3[Fe][n]3c(c(C)c(CCC(=O)O)c3=CC3=NC(=C4)C(C)=C3CCC(=O)O)=CC1=N2 [Fe(III)-DADPIX, Fe(III) 2,4-diacetyl deuteroporphyrin IX] | < 10 nM | – | – |
| C1=Cc2nc1c(-c1ccccc1)c1ccc([n-]1)c(-c1ccncc1)c1nc(c(-c3ccccc3)c3ccc([n-]3)c2-c2ccncc2)C=C1.[Zn+2] [Zn meso-di(4-pyridyl)-diphenyl porphyrin] | – | no binding detected | – |
| O=C(O)c1ccc(-c2c3nc(c(-c4ccc(C(=O)O)cc4)c4ccc([nH]4)c(-c4ccc(C(=O)O)cc4)c4nc(c(-c5ccc(C(=O)O)cc5)c5ccc2[nH]5)C=C4)C=C3)cc1 [Zn meso-tetra(4-carboxyphenyl) prophyrin] | – | – | Kd [1]: 5000 nM |
| C=CC1=C(C)c2cc3[nH]c(cc4[nH]c(cc5nc(cc1n2)C(C)=C5C=C)c(C)c4CCC(=O)O)c(CCC(=O)O)c3C [Zn protoporphyrin IX (ZnPPIX), Zn protoporphyrin IX] | – | – | Kd [1]: 2000 nM |
| Zn chlorin e6 [Zn chlorin e6 (ZnCe6)] | – | no binding detected | – |

More lines, main results first:

| Kd (RC maquette) | Dissociation constant (KD), result in words [1] | Molecule | also measured |
| --- | --- | --- | --- |
| – | no binding detected | CCC1=C(C)c2cc3[n-]c(cc4[n-]c(cc5nc(cc1n2)C(C)=C5CC)c(C)c4CCC(=O)O)c(CCC(=O)O)c3C.[Zn+2] [Zn mesoporphyrin IX (ZnMPIX), Zn mesoporphyrin IX] | – |
| < 10 nM | – | C=CC1=C(C)c2cc3[n-]c(cc4[n-]c(cc5nc(cc1n2)C(C)=C5C=C)c(C)c4CCC(=O)O)c(CCC(=O)O)c3C.[Fe+2] [heme B] | Kd (DH maquette): < 10 nM |
